Test results taken from ChEMBL document CHEMBL5649166, “RIP3 induces apoptosis independent of pronecrotic kinase activity” (Mol Cell, 2014).

How the values were obtained:
[1] = target: T1, Serine/threonine-protein kinase 17A (Homo sapiens) (UniProt Q9UEE5); test: Inhibition of human DRAK1/STK17A using KKLNRTLSFAEPG as substrate at 1 uM in presence of 32P-ATP by Hotspot assay relative to control; values are per cent of control
T1 sequence (whole entry): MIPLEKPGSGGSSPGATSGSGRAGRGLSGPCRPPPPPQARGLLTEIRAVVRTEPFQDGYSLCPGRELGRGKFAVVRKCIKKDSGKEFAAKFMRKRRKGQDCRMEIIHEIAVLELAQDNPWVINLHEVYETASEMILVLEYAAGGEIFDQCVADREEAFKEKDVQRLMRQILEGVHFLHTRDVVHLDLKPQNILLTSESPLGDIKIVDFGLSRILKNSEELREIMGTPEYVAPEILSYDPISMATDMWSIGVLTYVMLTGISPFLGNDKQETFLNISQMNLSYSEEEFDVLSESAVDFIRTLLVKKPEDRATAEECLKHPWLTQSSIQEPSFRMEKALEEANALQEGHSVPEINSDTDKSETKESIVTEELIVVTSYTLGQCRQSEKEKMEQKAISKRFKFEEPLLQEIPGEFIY

[2] = target: T2, Phosphorylase b kinase gamma catalytic chain, liver/testis isoform (Homo sapiens) (UniProt P15735); test: Inhibition of human PHKg2 using KKLNRTLSFAEPG as substrate at 1 uM in presence of 32P-ATP by Hotspot assay relative to control; values are per cent of control
T2 sequence (whole entry): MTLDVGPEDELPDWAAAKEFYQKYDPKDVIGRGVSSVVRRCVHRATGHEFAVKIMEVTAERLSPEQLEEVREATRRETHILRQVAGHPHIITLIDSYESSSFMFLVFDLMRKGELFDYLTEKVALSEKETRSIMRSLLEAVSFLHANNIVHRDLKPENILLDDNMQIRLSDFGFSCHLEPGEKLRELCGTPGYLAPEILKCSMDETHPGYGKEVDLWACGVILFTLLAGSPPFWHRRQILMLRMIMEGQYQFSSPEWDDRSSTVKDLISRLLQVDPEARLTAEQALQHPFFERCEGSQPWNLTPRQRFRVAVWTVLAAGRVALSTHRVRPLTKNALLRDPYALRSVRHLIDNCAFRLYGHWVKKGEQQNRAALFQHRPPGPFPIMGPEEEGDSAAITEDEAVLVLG

[3] = target: T3, Serine/threonine-protein kinase BRSK2 (Homo sapiens) (UniProt Q8IWQ3); test: Inhibition of human BRSK2 using KKLNRTLSFAEPG as substrate at 1 uM in presence of 32P-ATP by Hotspot assay relative to control; values are per cent of control
T3 sequence (whole entry): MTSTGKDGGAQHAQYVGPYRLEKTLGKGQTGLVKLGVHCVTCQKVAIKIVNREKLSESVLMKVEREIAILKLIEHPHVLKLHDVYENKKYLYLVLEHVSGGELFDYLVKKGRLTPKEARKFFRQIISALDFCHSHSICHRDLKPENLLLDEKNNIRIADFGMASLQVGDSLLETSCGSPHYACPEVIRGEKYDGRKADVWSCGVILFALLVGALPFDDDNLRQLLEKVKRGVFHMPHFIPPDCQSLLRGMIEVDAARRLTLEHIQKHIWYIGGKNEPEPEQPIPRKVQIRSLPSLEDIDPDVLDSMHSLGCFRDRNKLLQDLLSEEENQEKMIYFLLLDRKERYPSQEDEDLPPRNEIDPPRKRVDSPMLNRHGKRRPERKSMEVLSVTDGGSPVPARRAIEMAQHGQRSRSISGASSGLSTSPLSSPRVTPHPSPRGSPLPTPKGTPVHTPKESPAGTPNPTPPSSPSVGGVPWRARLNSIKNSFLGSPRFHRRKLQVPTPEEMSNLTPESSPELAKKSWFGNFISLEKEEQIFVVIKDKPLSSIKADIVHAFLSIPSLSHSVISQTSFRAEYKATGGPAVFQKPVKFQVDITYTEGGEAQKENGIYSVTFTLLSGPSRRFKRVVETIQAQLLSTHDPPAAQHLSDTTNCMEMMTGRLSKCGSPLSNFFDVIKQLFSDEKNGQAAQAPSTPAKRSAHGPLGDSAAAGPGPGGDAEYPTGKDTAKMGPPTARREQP

[4] = target: STE20/SPS1-related proline-alanine-rich protein kinase (Homo sapiens) (UniProt Q9UEW8); test: Residual activity of human STK39/STLK3 using myelin basic protein as substrate at 1 uM in presence of 32P-ATP by Hotspot assay relative to control
[5] = target: Protein kinase C beta type (Homo sapiens) (UniProt P05771); test: Inhibition of human PKCb1 using ERMRPRKRQGSVRRRV as substrate at 1 uM in presence of 32P-ATP by Hotspot assay relative to control; values are per cent of control
Protein kinase C beta type (Homo sapiens), sequence (P05771 2-671 limits assumed): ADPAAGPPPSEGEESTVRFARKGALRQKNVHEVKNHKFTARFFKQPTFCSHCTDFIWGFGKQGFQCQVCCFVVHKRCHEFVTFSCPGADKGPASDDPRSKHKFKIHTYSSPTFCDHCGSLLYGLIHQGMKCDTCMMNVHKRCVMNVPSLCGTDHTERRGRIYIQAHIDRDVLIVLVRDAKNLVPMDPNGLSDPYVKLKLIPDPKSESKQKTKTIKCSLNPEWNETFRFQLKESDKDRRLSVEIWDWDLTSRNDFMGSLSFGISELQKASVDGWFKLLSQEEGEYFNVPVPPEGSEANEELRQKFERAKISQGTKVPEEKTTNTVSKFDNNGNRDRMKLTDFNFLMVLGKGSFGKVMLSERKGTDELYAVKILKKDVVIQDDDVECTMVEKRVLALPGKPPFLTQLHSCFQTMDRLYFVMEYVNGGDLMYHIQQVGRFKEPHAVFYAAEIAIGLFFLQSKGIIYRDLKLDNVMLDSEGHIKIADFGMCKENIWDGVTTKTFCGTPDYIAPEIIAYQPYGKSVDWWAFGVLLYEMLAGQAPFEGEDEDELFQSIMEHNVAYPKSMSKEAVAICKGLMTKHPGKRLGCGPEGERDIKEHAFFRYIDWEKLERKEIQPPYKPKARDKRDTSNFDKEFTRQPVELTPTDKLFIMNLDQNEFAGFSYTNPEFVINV

[6] = target: T4, Muscle, skeletal receptor tyrosine-protein kinase (Homo sapiens) (UniProt O15146); test: Inhibition of human MUSK using myelin basic protein as substrate at 1 uM in presence of 32P-ATP by Hotspot assay relative to control; values are per cent of control
T4 sequence (whole entry): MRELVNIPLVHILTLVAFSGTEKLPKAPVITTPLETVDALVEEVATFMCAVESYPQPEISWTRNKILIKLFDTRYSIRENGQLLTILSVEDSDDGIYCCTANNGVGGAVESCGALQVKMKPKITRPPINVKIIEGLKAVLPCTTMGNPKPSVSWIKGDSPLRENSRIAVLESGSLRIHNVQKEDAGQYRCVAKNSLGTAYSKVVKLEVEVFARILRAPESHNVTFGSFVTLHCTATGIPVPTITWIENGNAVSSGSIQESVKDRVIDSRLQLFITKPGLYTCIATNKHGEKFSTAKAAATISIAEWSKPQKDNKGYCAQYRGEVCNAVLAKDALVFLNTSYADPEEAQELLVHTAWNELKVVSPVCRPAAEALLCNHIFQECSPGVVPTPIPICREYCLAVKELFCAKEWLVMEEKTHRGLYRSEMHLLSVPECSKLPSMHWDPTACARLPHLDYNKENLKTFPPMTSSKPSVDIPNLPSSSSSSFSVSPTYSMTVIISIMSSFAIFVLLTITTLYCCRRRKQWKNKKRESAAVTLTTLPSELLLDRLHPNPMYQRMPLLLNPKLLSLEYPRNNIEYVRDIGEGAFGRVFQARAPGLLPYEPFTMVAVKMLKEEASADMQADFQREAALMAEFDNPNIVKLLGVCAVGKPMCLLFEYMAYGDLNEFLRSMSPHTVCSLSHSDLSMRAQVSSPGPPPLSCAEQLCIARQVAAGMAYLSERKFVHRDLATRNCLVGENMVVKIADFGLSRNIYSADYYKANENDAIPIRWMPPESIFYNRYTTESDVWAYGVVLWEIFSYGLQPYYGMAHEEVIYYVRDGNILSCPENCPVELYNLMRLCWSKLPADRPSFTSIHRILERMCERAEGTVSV

## Cc1cc(-c2cnc(N)c3c(-c4ccc5scnc5c4)csc23)n(C)n1
[1]
  residual activity: 96.8%
[2]
  residual activity: 95.4%
[3]
  residual activity: 89%
[4]
  residual activity: 108%
[5]
  residual activity: 96.1%
[6]
  residual activity: 105%

## CC(C)S(=O)(=O)c1ccc2nccc(Nc3ccc4scnc4c3)c2c1
[1]
  residual activity: 99%
[2]
  residual activity: 98.2%
[3]
  residual activity: 99.4%
[4]
  residual activity: 94.9%
[5]
  residual activity: 96.3%
[6]
  residual activity: 98.1%

## CNC(=O)c1ccc2c(c1)ncn2-c1ccc(CC(=O)OC(C)(C)C)cc1
[1]
  residual activity: 98.9%
[2]
  residual activity: 100%
[3]
  residual activity: 92%
[4]
  residual activity: 103%
[5]
  residual activity: 95%
[6]
  residual activity: 103%
